Test results from patent publication US20230234936A1, “COMPOUND FOR TARGETING AND DEGRADING PROTEIN, AND PREPARATION METHOD THEREFOR AND USE THEREOF” (SHANGHAI LEADINGTAC PHARMACEUTICAL CO., LTD., priority 2020, published 2023).

Columns and labels:
[1] = target: T1, IRAK4 kinase (Homo sapiens, UniProt Q9NWZ3); assay: IRAK4 kinase activity test (KinEASE-STK S1 HTRF kit); type: biochemical; details: 2.5 nM kinase, 1 μM biotinylated polypeptide substrate, 7 μM ATP, 37° C. 120 min
T1 sequence (Q9NWZ3 1-460): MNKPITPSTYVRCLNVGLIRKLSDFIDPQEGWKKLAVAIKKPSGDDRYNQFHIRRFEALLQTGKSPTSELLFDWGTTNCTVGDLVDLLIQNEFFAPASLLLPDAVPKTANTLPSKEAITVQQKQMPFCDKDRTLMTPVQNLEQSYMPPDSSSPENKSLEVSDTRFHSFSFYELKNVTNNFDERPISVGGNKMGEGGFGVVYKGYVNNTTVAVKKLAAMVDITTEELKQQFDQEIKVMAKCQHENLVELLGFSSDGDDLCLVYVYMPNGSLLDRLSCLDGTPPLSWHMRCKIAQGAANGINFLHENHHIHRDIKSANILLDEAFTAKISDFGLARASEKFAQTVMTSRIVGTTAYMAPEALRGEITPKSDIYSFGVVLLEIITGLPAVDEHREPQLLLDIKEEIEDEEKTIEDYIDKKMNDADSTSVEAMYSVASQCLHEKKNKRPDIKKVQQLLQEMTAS
In short: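 Compound in DMSO, serially diluted to 10000–0.038 nM final, incubated with 2.5 nM kinase, 1 μM biotinylated peptide substrate and 7 μM ATP at 37° C for 120 min. Eu-anti-phospho-Ser/Thr antibody plus streptavidin-XL665 stopped the reaction (1 h RT). HTRF 665/620 nm ratio gave % inhibition versus control; IC50 from nonlinear log-concentration fit.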

[2] = target: T2, IRAK4 protein in THP-1 cells (Homo sapiens, UniProt Q9NWZ3); assay: Degradation of IRAK4 in THP-1 cells (Western blot); type: cell-based; details: 24 hours, compound 1-3000 nM
T2 construct: endogenous in cells; host or cells: THP-1
T2 sequence (Q9NWZ3 1-460): T1 sequence (Q9NWZ3 1-460)
In short: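 THP-1 cells (5×10^5/well) treated 24 h with compound at 1–3000 nM final. IRAK4 in lysates quantified by Western blot, normalized to internal reference and compared with control to give degradation rate; DC50 and Dmax from nonlinear fit of log concentration.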

Compound | IC50 [1] | DC50 [2] | Dmax [2]
CC(C)(O)c1cc2nn(C3CCN(CC4CCC5(CC4)CCN(C(=O)c4ccc(F)c(N6CCC(=O)NC6=O)c4)CC5)CC3)cc2cc1NC(=O)c1cccc(C(F)(F)F)n1 [Example 45, N-(2-(1-((3-(3-(2,4-dioxotetrahydro-pyrimidin-1 (2H)-yl)-4-fluoro-benzoyl)-3-azaspiro[5.5]undec-9-yl)methyl)piperidin-4-yl)-6-(2-hydroxyprop-2-yl)-2H-indazol-5-yl)-6-(trifluoro-methyl) pyridinecarbox-amide] | 23.5 nM | 1.9 nM | 98.2%
COc1cc2nn(C3CCN(CCC4CCC5(CC4)CCN(C(=O)c4ccc(F)c(N6CCC(=O)NC6=O)c4)CC5)CC3)cc2cc1NC(=O)c1cccc(C(F)(F)F)n1 [Example 46, N-(2-(1-(2-(3-(3-(2,4-dioxotetrahydro-pyrimidin-1 (2H)-yl)-4-fluoro-benzoyl)-3-azaspiro[5.5]undec-9-yl)ethyl)piperidin-4-yl)-6-methoxy-2H-indazol-5-yl)-6-(tri-fluoromethyl) pyridinecarbox-amide] | 43.1 nM | 4 nM | 97.8%
COc1cc2nn(C3CCN(CCC4CCC5(CC4)CCN(C(=O)c4ccc(Cl)c(N6CCC(=O)NC6=O)c4)CC5)CC3)cc2cc1NC(=O)c1cccc(C(F)(F)F)n1 [Example 48, N-(2-(1-(2-(3-(4-chloro-3-(2,4-dioxotetrahydro-pyrimidin-1 (2H)-yl)benzoyl)-3-azaspiro[5.5]undec-9-yl)ethyl)piperidin-4-yl)-6-methoxy-2H-in-dazol-5-yl)-6-(tri-fluoromethyl) pyridinecarbox-amide] | 61.8 nM | 6 nM | 98%
COc1cc2nn([C@H]3CC[C@H](CN4CCC5(CC4)CCN(C(=O)c4ccc(Cl)c(N6CCC(=O)NC6=O)c4)CC5)CC3)cc2cc1NC(=O)c1cccc(C(F)(F)F)n1 [Example 50, N-(2-((1r,4r)-4-((9-(4-chloro-3-(2,4-dioxotetrahydropyrim-idin-1 (2H)-yl)benzoyl)-3,9-diazaspiro[5.5]undec-3-yl)methyl)cyclohexyl)-6-methoxy-2H-inda-zol-5-yl)-6-(tri-fluoromethyl) pyridinecarbox-amide] | 7.2 nM | 5.6 nM | 97%
CCN(C1CCC2(CC1)CCN(C(=O)c1ccc(Cl)c(N3CCC(=O)NC3=O)c1)CC2)[C@H]1CC[C@H](n2cc3cc(NC(=O)c4cccc(C(F)(F)F)n4)c(OC)cc3n2)CC1 [Example 60] | 6.43 nM | 5.1 nM | 93.2%
COc1cc2nn([C@H]3CC[C@H](COCCC4CCN(C(=O)c5ccc(Cl)c(N6CCC(=O)NC6=O)c5)CC4)CC3)cc2cc1NC(=O)c1cccc(C(F)(F)F)n1 [Example 64, N-(2-((1r,4r)-4-((2-(1-(4-chloro-3-(2,4-dioxotetrahydro-pyrimidin-1 (2H)-yl)benzoyl)piperidin-4-yl)ethoxy)methyl)cyclohexyl)-6-methoxy-2H-indazol-5-yl)-6-(trifluoro-methyl) pyridinecarbox-amide] | 48 nM | 13.9 nM | 95.6%
COc1cc2nn([C@H]3CC[C@H](CN(C)C4CCN(C5CCN(C(=O)c6ccc(Cl)c(N7CCC(=O)NC7=O)c6)CC5)CC4)CC3)cc2cc1NC(=O)c1cccc(C(F)(F)F)n1 [Example 65, N-(2-((1r,4r)-4-(((1′-(4-chloro-3-(2,4-dioxotetrahydro-pyrimidin-1 (2H)-yl)benzoyl)-[1,4′-bi-piperidin]-4-yl) (methyl)amino)methyl)cyclohexyl)-6-methoxy-2H-indazol-5-yl)-6-(trifluoro-methyl) pyridinecarbox-amide] | 1.6 nM | 13.4 nM | 98.3%
COc1cc2nn([C@H]3CC[C@H](CN(C)CCCCC4CCN(C(=O)c5ccc(Cl)c(N6CCC(=O)NC6=O)c5)CC4)CC3)cc2cc1NC(=O)c1cccc(C(F)(F)F)n1 [Example 67, N-(2-((1r,4r)-4-(((4-(1-(4-chloro-3-(2,4-dioxotetrahydro-pyrimidin-1 (2H)-yl)benzoyl)piperidin-4-yl)butyl) (methyl)amino)methyl)cyclohexyl)-6-methoxy-2H-indazol-5-yl)-6-(trifluoro-methyl) pyridinecarbox-amide] | 5.13 nM | 11.5 nM | 99.2%

The remaining compounds from weak to strong by IC50 [1], led by results:

IC50 [1] | DC50 [2] | Dmax [2] | Compound
114 nM | 3.7 nM | 97% | CC(C)(C)C(=O)OCN1C(=O)CCN(c2cc(C(=O)N3CCC4(CCC(CCN5CCC(n6cc7cc(NC(=O)c8cccc(C(F)(F)F)n8)c(C(C)(C)O)cc7n6)CC5)CC4)CC3)ccc2Cl)C1=O [Example 71, methyl (3-(2-chloro-5-(9-(2-(4-(6-(2-hydroxyprop-2-yl)-5-(6-(trifluoromethyl)pyridinecarboxamido)-2H-indazol-2-yl)piperidin-1-yl)ethyl)-3-azaspiro[5.5]undecyl-3-carbonyl)phenyl)-2,6-dioxotetrahydropyrimidin-1 (2H)-yl) pivalate]
34.2 nM | 5.4 nM | 98.3% | COc1cc2nn(C3CCN(CCC4CCC5(CC4)CCN(C(=O)c4cccc(N6CCC(=O)NC6=O)c4)CC5)CC3)cc2cc1NC(=O)c1cccc(C(F)(F)F)n1 [Example 47, N-(2-(1-(2-(3-(3-(2,4-dioxotetrahydro-pyrimidin-1 (2H)-yl)benzoyl)-3-azaspiro[5.5]undec-9-yl)ethyl)piperidin-4-yl)-6-methoxy-2H-in-dazol-5-yl)-6-(tri-fluoromethyl) pyridinecarbox-amide]
21.4 nM | 16.1 nM | 95.3% | O=C1CCN(c2cc(C(=O)N3CCC4(CCC(CN5CCC(n6cc7cc(NC(=O)c8cccc(C(F)(F)F)n8)c(OC(F)F)cc7n6)CC5)CC4)CC3)ccc2Cl)C(=O)N1 [Example 66]
11.3 nM | 27.5 nM | 95.4% | COc1cc2nn([C@H]3CC[C@H](CN(C)CC4CCN(C(=O)c5ccc(Cl)c(N6CCC(=O)NC6=O)c5)CC4)CC3)cc2cc1NC(=O)c1cccc(C(F)(F)F)n1 [Example 51, N-(2-((1r,4r)-4-((((1-(4-chloro-3-(2,4-dioxotetrahydro-pyrimidin-1 (2H)-yl)benzoyl)piperdin-4-yl)methyl) (methyl)amino)methyl)cyclohexyl)-6-methoxy-2H-inda-zol-5-yl)-6-(tri-fluoromethyl) pyridinecarbox-amide]
6.9 nM | 5.6 nM | 92.3% | CN(CC1CCN(C(=O)c2ccc(Cl)c(N3CCC(=O)NC3=O)c2)CC1)C[C@H]1CC[C@H](n2cc3cc(NC(=O)c4cccc(C(F)(F)F)n4)c(C(C)(C)O)cc3n2)CC1 [Example 62]
4.3 nM | 7.6 nM | 92.1% | COc1cc2nn([C@H]3CC[C@H](N4CCC5(CCN(C(=O)c6ccc(Cl)c(N7CCC(=O)NC7=O)c6)CC5)CC4)CC3)cc2cc1NC(=O)c1cccc(C(F)(F)F)n1 [Example 58, N-(2-((1r,4r)-4-(9-(4-chloro-3-(2,4-dioxotetrahydro-pyrimidin-1 (2H)-yl)benzoyl)-3,9-diazaspiro[5.5]undec-3-yl)cyclohexyl)-6-methoxy-2H-inda-zol-5-yl)-6-(triflu-oromethyl) pyridinecarbox-amide]
